In publication PMC7305224, “Mutually stabilizing interactions between proto-peptides and RNA” (Nature Communications, 2020):
pKd: −log10 of the molar value.

Assays:
RNA duplex 1 = assay: Depsipeptide hydrolysis assay with or without RNA duplex 1, SimFit modelling; assay type: physicochemical
Description: Fig. 5 RNA increases the hydrolytic lifetime of a cationic depsipeptide. a A schematic of depsipeptide-RNA interactions leading to increased depsipeptide lifetimes. The free depsipeptide is hydrolyzed with a pseudo-first rate constant, khyd-free. Binding of the depsipeptide to RNA is governed at equilibrium by kassoc/kdissoc. The pseudo-first rate constant for of depsipeptide hydrolysis within the depsipeptide–RNA complex is khyd-complex. Under conditions where complex formation is favorable and khyd-complex < khyd-free, the presence of RNA will increase the depsipeptide lifetime. b HPLC traces (270 nm) showing hydrolysis of depsipeptide 9 (25 μM) at various time points in the presence or absence of RNA duplex 1 at 37 °C in pH 7.3 buffer. The C-terminal fragment of the hydrolyzed depsipeptide is not observed because it lacks the Aba chromophore. (c) Time courses for hydrolysis of depsipeptide 9 (25 μM) with varying concentrations of the RNA duplex 1. The curves shown are from simultaneous fits of data to the model given in panel a using SimFit[44]. During fitting, we fixed kassoc = 1 × 10^5 M^−1 s^−1. Therefore, three rate constants were fit, with values obtained by the fitting of: khyd-free = 1.1 × 10^−4 s^−1, khyd-complex = 3.2 × 10^−6 s^−1, and kdissoc = 8.3 × 10^−3 s^−1. d Kinetic profile of the hydrolysis reaction of depsipeptide 9 (25 μM) in the presence of 7 μM RNA duplex 1. […] The extent of depsipeptide hydrolysis and RNA hybridization were then measured. Data are shown as a scatter plot of two independently repeated experiments.
To determine the extent of depsipeptide hydrolysis, the depsipeptide (25 μM) was incubated at 37 °C in buffer (100 mM HEPES, 10 mM NaCl, pH 7.3) in the presence or absence of 10mer RNA duplex 1 (5′-rCrGrArUrUrUrArGrCrG-3′ and 3′-rGrCrUrArArArUrCrGrC-5′) at various concentrations, or with single-stranded RNA (5′-rCrGrArUrUrUrArGrCrG-3′, 100 μM), for up to 100 h. Prior to adding depsipeptide to the reaction from its stock solution, the RNA was annealed by heating to 75 °C for 5 min, and then slowly cooling to room temperature. Reaction aliquots were quenched using 3% TFA and frozen or immediately analyzed by HPLC (270 nm). The relative concentrations of intact and hydrolyzed depsipeptide were quantified by integrating the corresponding peaks in HPLC traces. The kinetic profiles of depsipeptide hydrolysis were fit using SimFit-32 (provided by G. von Kiedrowski) according to the reaction scheme shown in Fig. 5a.
Data from the nine independent depsipeptide hydrolysis reactions carried out with different concentrations of RNA duplex were simultaneously fit using SimFit to the reaction model shown in Fig. 5a. In the model, the free depsipeptide is subject to hydrolysis at a pseudo-first order rate governed by khyd-free. Binding of the depsipeptide to RNA according to an equilibrium determined by kassoc/kdissoc yields a depsipeptide-RNA complex, for which the pseudo-first order rate of ester hydrolysis is described by khyd-complex. During fitting, we fixed kassoc = 1 × 10^5 M^−1 s^−1, on the lower end of rates observed and expected for protein–RNA association. Therefore, three parameters were variable during the fitting, and the final rate constants determined by the fitting were: khyd-free = 1.1 × 10^−4 s^−1, khyd-complex = 3.2 × 10^−6 s^−1, and kdissoc = 8.3 × 10^−3 s^−1. […] Our model assumes a 1:1 stoichiometry for depsipeptide:RNA in the complex, and assumes the RNA is present only as a duplex (ignores steps involving RNA strand hybridization to form the duplex). The final RMS error of the fit was 5.4%. The output file obtained from the fitting is provided in the Supplementary Note.

[1] = tested on: RNA duplex 2 (5′-rArArArArUrUrUrArUrArUrUrArUrUrA-3′ and 5′-rUrArArUrArArUrArUrArArArUrUrUrU-3′); assay: RNA thermal denaturation (Tm) by UV hyperchromicity, RNA duplex 2; assay type: binding
Description: Prior to Tm analyses, RNA samples were annealed in the appropriate buffer by heating to 75 °C and slowly cooling to room temperature. Depsipeptide/peptide was added to the annealed RNA and incubated at 4 °C for 20 min prior to carrying out the analysis. For analyses involving dry-down reaction mixtures, the Tm was determined by monitoring fluorescence increase upon melting of a fluorophore/quencher-labeled RNA duplex (5′-rCrGrArUrUrUrArGrCrG-/3IABkFQ/-3′ and 3′-rGrCrUrArArArUrCrGrC-FAM-5′) using a BioRad CFX Connect rtPCR instrument with a heating ramp of 1 °C/min and 20 μL final sample volumes. For analyses involving pure, synthetic compounds, the Tm of the RNA was determined by monitoring UV hyperchromicity at 260 nm using a Varian Cary Bio-100 spectrophotometer, with a heating ramp of 1 °C/min and 0.5- or 1-cm pathlength cells. The following RNA sequences were used: RNA duplex 1 = 5′-rCrGrCrUrArArArUrCrG-3′ and 5′-rCrGrArUrUrUrArGrCrG-3′; RNA duplex 2 = 5′-rArArArArUrUrUrArUrArUrUrArUrUrA-3′ and 5′-rUrArArUrArArUrArUrArArArUrUrUrU-3′; RNA duplex 3 = 5′-rArArCrGrUrArUrArCrGrUrU-3′ (palindromic); and H26a RNA = 5′-rArUrGrArGrUrArArCrCrGrUrArArGrGrUrGrArArArUrU-3′. RNA was present in each assay at a final concentration of 2.5 μM of the folded structure (2.5 μM each strand for duplex 1 and duplex 2, 5.0 μM palindromic strand for duplex 3, 2.5 μM strand for H26a RNA). Tm values were determined by nonlinear fitting of the melting curves using GraphPad Prism 8.2.1 for duplex 1 and H26a, or by finding the maximum of the first derivative of the curve using the Varian Cary Bio-100 software for duplex 2 and duplex 3. Both methods of determining the Tm gave similar values for a given denaturation curve.

[2] = SimFit results output file, final NEWTON values

Substance: Aba-Gly-Ala-Dab-Lys-Ala-Dab-Lys-lac-Dab-Lys-Ala-Dab-Lys-NH2 [compound 9]
- level of intact depsipeptide with RNA vs depsipeptide alone (RNA duplex 1; 25 μM depsipeptide ± RNA duplex 1 (25 μM each strand), 37 °C, 12 h, HPLC): substantially higher levels
- increase of observed depsipeptide lifetime by RNA duplex (RNA duplex 1; 25 μM depsipeptide, RNA duplex 1, 37 °C, pH 7.3 buffer, HPLC): ~ 30 fold
- kdissoc (depsipeptide–RNA complex) (RNA duplex 1; SimFit fit of hydrolysis data with kassoc fixed at 1 × 10^5 M^−1 s^−1, 37 °C, pH 7.3): 0.0083 s⁻¹
- k2 (SimFit output; kdissoc) (RNA duplex 1; [2]): 8.2871E-3
- k3 (SimFit output; khyd-complex) (RNA duplex 1; [2]): 3.1996E-6
- k1 (SimFit output; khyd-free) (RNA duplex 1; SimFit results output file, final NEWTON values, R.M.S. 5.4087 %): 1.0596E-4
- pKd (RNA duplex 1; from fixed kassoc and calculated kdissoc, read-out: predicted dissociation constant of the depsipeptide-RNA complex): 7.00
- fold by which khyd-complex is lower than khyd-free (RNA duplex 1; ratio of fitted rate constants): ~ 34 fold
- RNA duplex 2 Tm ([1]; observed Tm with peptide/depsipeptide 100 µM, pH 7.0, RNA alone 33.7 ± 0.7, mean ± SD of 2-4 independent experiments): 41.8 ± 0.6 °C
- RNA duplex 2 ΔTm ([1]; peptide/depsipeptide 100 μM, RNA 2.5 μM each strand, pH 7.0, 10 mM phosphate, 100 mM NaCl, mean of 2–4 replicates): 8.2 °C
